These results are taken from patent US8865672B2, “Prevention of tissue ischemia and related methods” (The United States of America, as represented by the …, priority 2006, dated 2014).

The subject of one data set is CD47. Put plainly: Western analysis of CD47 in human aortic VSMC. The data set is classed as cell-based. The following applies: 48 hours. The procedure:
Human aortic VSMC were plated onto 12-well culture plates (Nunc) at a density of 5×10^4 cells/well in SM-GM+2% FCS and cultured until approximately 90% confluent. A translation-blocking antisense morpholino oligonucleotide complementary to human and murine CD47 ([…]; SEQ ID NO: 21) and a five-base mismatch control (CGTgACAGcCAcGACCgACTGCgCA; SEQ ID NO: 22) were obtained from GeneTools (Philomath, Oreg.). Cultured cells were treated as per the manufacturer's recommendation with morpholinos (10 μM) and utilized within 48 hours of treatment.
Murine VSMC were plated in 12-well culture plates (5×10^4 cells/well) (Nunc) in growth medium and weaned over 48 h of additives and serum and then treated in basic medium with 0.1% BSA. Cells were washed twice with PBS and lysed in 1×SDS sample buffer containing 10 μg/mL leupeptin, 10 μg/mL aprotinin, 1 mM Na3VO4, and 40 mM NaF. Lysates prepared in the SDS sample buffer described above were electrophoresed in 4-12% BisTris NuPAGE gels and transferred to PVDF membranes prior to immunoblotting using a mouse monoclonal CD47 antibody, clone B6H12 (Lab Visions, Fremont, Calif.).

The next data set relates to HAVSMC. As to the kind of experiment: Actin cytoskeleton staining (F-actin) in HAVSMC. In kind it is cell-based, human. The procedure: VSMC were grown on glass well slides (Lab-Tek, Nunc) under standard growth conditions. Cells were incubated at 37° C. for 1 hour in serum and additive deficient growth medium and the indicated treatment agents, after which the media was removed and the cells were fixed in 4% paraformaldehyde in PBS (pH 7.4, Fisher Scientific) for 15 minutes at room temperature. After washing with DPBS, cells were permeabilized for 5 minutes in 0.1% Triton X-100 in PBS and then blocked in M199E/2% BSA for 30 min at room temperature. Cells were stained for F-actin with 1 unit/200 μl medium/1% BSA of Oregon Green 488 phalloidin (Molecular Probes). Slides were imaged using an Olympus IX70 microscope and photographed at constant exposure and gain. In other experiments VSMC were plated on 24-well culture plates (Nunc, Denmark) in smooth muscle growth medium (50,000 cells/well) and weaned from serum and additives over 24 hours. Cell treatment was performed with the indicated agents in plain medium with 0.1% BSA for 5 minutes. Wells were processed as described above. Following staining with phalloidin cells were incubated in methanol for 30 minutes, samples aliquoted to 96-well black plates and fluorescence read at 520 nm (excitation 495 nm). Data was normalized to total protein. Results represent the mean±SD of at least three separate experiments.

The test system of the next data set is human platelets. As to the kind of experiment: cGMP in human platelets. The data set is classed as cell-based. The procedure:
(§1) Fresh human platelets at 2×10^5 platelets/μl in Tyrode's buffer or PRP were pre-incubated with the indicated agents for 15 minutes and then challenged with DEA/NO for the indicated time interval at room temperature and total cGMP determined via immunoassay (Amersham, GE Healthcare, Buckinghamshire, UK). Murine WT and TSP1-null platelets were treated with DEA/NO and cGMP flux measured.

For data set [1], the system named is murine ASMC (WT, CD36 null, CD47 null). Put plainly: Murine ASMC adhesion on type I collagen. The data set is classed as cell-based, mouse. The note with it: CD47 null MASMC. The procedure:
Murine ASMC were obtained from aortic segments harvested sterilely from C57B1/6 CD47 null or CD36 null mice as described (Ray et al., Methods Cell Sci 23:185-188, 2001) and cultured in SM-GM (Cambrex)+20% FCS. In the case of CD36 null cells, culture flasks were pre-coated with 1% gelatin prior to cell plating. Wild type C57B1/6 ASMC cultures were prepared as previously described (Isenberg et al., Matrix Biol 24:110-123, 2005). Cell culture purity was determined by immunohistochemistry staining for α-smooth muscle actin. Cells were used within passage 1 to 4 to minimize overgrowth of other cell types.
Cell adhesion was carried out in 96-well culture plates. After pre-coating wells with type I collagen (3 μg/ml in DPBS) harvested cells were plated at a density of 1×10^4 cells/well in medium plus 0.1% BSA and treatment agents and incubated in 5% CO2 for 1 h. Wells were washed with PBS and cells fixed with 1% glutaraldehyde for 10 min., washed and stained with 1% crystal violet for 20 min. Excess stain was rinsed away, adherent cells treated with 10% acetic acid, and plates read at 570 nm.

The subject of data set [2] is murine WT and TSP1-null platelets. Put plainly: cGMP in murine platelets. The data set is classed as cell-based, mouse. The following applies: WT and null platelets, TSP1 2.2 nM. The procedure:
After induction of general anesthesia with isoflurane 2%, age and sex matched C57BL/6 WT and TSP1-null mice underwent cardiac puncture. Blood was aspirated into 1 cc syringes with a 25 gauge needle containing 100 μl heparin (Heparin Lock Flush, Abbott, Chicago, Ill.), mixed with 100 μl 3% ACD and centrifuged in 1.2 ml S-Monovette separation tubes (Sarstedt, Germany). PRP was aspirated off, centrifuged, and the resulting platelet pellet was resuspended in 200 μl of Tyrode's buffer.
as §1

The test system of data set [3] is vascular cell outgrowth from muscle explants. As to the kind of experiment: Explant invasion assay in 3D collagen. The note with it: TSP1 1 μg/ml. The data set is classed as cell-based, mouse. The procedure:
Muscle biopsies from the pectoralis major muscle of 8 to 12 week old wild type or transgenic mice were harvested and explanted into 100 μl of type I collagen gel in 96-well tissue culture plates as described (Isenberg et al., Matrix Biol 24:110-123, 2005). Following gelation, the embedded explants were overlayed with 75 μl of EGM+2% FCS in the presence or absence of a dose range of DETA/NO (0.01-1000 μM) and other indicated treatments and then incubated at 37° C. and 5% CO2 for 7 days, at which time maximum vascular cell migration through the matrix was measured.

Data set [4] relates to murine ASMC (WT, CD36 null, CD47 null). Put plainly: Intracellular cGMP in murine ASMC. The data set is classed as cell-based, mouse. In a few lines:
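Aortic smooth muscle cells from wild-type C57Bl/6, CD36-null or CD47-null mice, passage 1–4, plated overnight in full growth medium. Weaned to SM-GM + 0.1% BSA before treatment with NO donor and other agents. Intracellular cGMP measured by enzyme immunoassay.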

For the substance “CGTCACAGGCAGGACCCACTGCCCA (all phosphorodiamidate morpholino (PMO)) [CD47 morpholino]”, in the data set on CD47, the “CD47 protein (Western)” value is “dose dependent decrease in CD47 protein”.
As to “TSP1: thrombospondin-1 prepared from human platelets”, in the data set with HAVSMC (DEA/NO 10 μM), the NO-induced actin disassembly result was “completely prevented actin disassembly by NO”. The “disassembly of S1P-induced F actin by NO” value with HAVSMC (S1P 100 nM, DEA/NO 10 μM) is listed as “attenuated”. The F-actin levels result in the data set on HAVSMC (agent alone (TSP1 2.2 nM, S1P 100 nM)) was “slightly increased F-actin levels”. Besides, in the data set on human platelets (PRP, TSP1 2.2 nM), the “NO-stimulated cGMP flux in platelets” value is “continued to block”. For the same substance, in the data set with human platelets (washed human platelets in Tyrode's buffer), the “NO stimulated cGMP in platelets” value was “decreased”. Besides, the NO-stimulated adhesion entry was “only moderately inhibited” in data set [1] (22 nM) and “had no effect” in data set [1] (concentrations up to 2.2 nM). Also, in data set [2], the “NO-driven flux in platelet cGMP” value is recorded as “decreased the NO-driven flux in platelet cGMP”. Besides, the “ability to antagonize NO-stimulated vascular outgrowth” value in data set [3] (CD36-null explants) is reported as “preserved”; in data set [3] (CD47-null explants), “lost”. For the same substance, the “NO-stimulated cGMP” value in data set [4] (CD36 null MASMC) is on record as “completely inhibited”; in data set [4] (CD47 null MASMC) it was “did not significantly inhibit”; in data set [4] (WT MASMC) it was “inhibited”.
